Here are results for two compounds from PubChem BioAssay AID670 (University of Pittsburgh Molecular Library Screening Center, 2007).

In this experiment the target is M-phase inducer phosphatase 2 (Homo sapiens) (UniProt P30305). As to the kind of experiment: Cdc25B inhibition under reducing thiol conditions, late-stage follow-up, Cdc25B inhibitor project, biochemical, beta-mercaptoethanol present, catalytic domain, IC50 (AID 670). The conditions noted are these: recombinant Cdc25B phosphatase activity, with beta-mercaptoethanol.
Chain of M-phase inducer phosphatase 2 (Homo sapiens) (P30305 whole entry, looked up, the tested form may be a part): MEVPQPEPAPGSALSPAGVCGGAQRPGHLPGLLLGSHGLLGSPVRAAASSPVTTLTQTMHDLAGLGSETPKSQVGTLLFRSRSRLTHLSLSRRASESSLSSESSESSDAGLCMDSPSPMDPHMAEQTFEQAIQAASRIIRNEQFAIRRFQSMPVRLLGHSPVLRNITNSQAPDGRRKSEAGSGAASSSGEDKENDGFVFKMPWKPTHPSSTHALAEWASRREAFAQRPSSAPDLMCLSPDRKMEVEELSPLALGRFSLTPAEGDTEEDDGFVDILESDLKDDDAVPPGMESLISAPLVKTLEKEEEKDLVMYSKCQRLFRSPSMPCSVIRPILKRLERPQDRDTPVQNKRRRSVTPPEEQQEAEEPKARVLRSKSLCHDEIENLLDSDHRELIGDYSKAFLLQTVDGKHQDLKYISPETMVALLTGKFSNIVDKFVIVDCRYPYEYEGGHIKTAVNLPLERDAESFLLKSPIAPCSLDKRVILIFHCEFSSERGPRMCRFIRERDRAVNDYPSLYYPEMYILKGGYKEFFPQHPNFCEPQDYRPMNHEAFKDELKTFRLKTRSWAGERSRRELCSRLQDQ

With `O=C(OC1CCCCC1)c1ccc2c(c1)C1C=CCC1C(C(=O)O)N2` (configuration not stated), the IC50 is 3.8 µM.

For `COc1cccc2c1NC(C(=O)O)C1CC=CC21` (configuration not stated), the IC50 was 8.11 µM.

In general, IC50 refers to the concentration needed to halve the response being measured.
